Reference: PubChem BioAssay AID602356 (Sanford-Burnham Center for Chemical Genomics, 2012)
Several values for one entry are separate records, joined by “and”; a condition that tells them apart may be missing. Identical values can stand only once. Activity calls are given as the source filed them. How the calls were made is not given here.

Biological target: Neurotensin receptor type 1 (Homo sapiens) (UniProt P30989)
Test: neurotensin receptor 1 activation – imaging, image-based, set 3, SAR follow-up (AID 602356)
Settings: NTR1 image-based agonist assay, cellular imaging

Chain of Neurotensin receptor type 1 (Homo sapiens) (P30989 whole entry, looked up): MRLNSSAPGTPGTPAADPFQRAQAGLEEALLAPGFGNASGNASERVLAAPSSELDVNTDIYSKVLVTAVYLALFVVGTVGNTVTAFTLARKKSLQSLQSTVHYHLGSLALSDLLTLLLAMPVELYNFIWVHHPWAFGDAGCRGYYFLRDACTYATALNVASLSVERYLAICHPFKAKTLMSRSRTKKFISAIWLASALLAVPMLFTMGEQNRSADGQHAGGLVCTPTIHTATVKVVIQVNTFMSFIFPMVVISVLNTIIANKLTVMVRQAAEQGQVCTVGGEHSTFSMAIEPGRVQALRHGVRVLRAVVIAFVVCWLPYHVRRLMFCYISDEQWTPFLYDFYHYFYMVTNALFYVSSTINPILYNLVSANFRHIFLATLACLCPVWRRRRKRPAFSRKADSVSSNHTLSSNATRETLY

| SMILES | EC50 |
| --- | --- |
| COc1cc2c3nnc(-c4ccccc4)c-3cn(Cc3ccc(C)cc3)c2cc1OC | > 80 µM (inactive) |
| COc1ccc(-c2nnc3c4cc(OC)c(OC)cc4n(Cc4ccccc4)cc2-3)cc1 | 17 µM |
| COc1cc2nc(Cc3ccccc3)nc(N3CCN(c4ccccc4OC)CC3)c2cc1OC | 13.8 µM |
| COc1cc2c3nnc(-c4ccc(F)cc4)c-3cn(CC3CC3)c2cc1OC | inactive |
| COc1cc2c3nnc(-c4ccc(C)c(C)c4)c-3cn(Cc3ccc(F)cc3)c2cc1OC | 16.2 µM |
| Cc1ccc(-c2nnc3c4cc5c(cc4n(Cc4ccccc4)cc2-3)OCO5)cc1 | inactive |
| c1ccc(Cn2cc3c(-c4ccccc4)nnc-3c3ccccc32)cc1 | inactive |
| COc1ccc(Cn2cc3c(-c4ccc(OC)cc4)nnc-3c3ccccc32)cc1 | > 80 µM (inactive) |
| COc1cc2c3nnc(-c4ccc(F)cc4)c-3cn(Cc3ccccn3)c2cc1OC | inactive |
| COc1ccc2c3nnc(-c4ccc(C)cc4)c-3cn(Cc3ccc(F)cc3)c2c1 | 11.2 µM |
| COc1cc2nc(C3CC3)nc(N3CCN(c4ccccc4Cl)CC3)c2cc1OC | 19.8 µM |
| CC(C)C[C@H](NC(=O)c1cn(-c2ccncc2)c(-c2ccccc2)n1)C(=O)O | > 80 µM (inactive) |
| COc1cc2c3nnc(-c4ccc(F)cc4)c-3cn(Cc3ccccc3F)c2cc1OC | 2.52 µM |
| COc1cccc(OC)c1-c1nc(C(=O)N[C@H](CC(C)C)C(=O)O)cn1-c1ccnc2cc(Cl)ccc12 | 9.41 µM |
| COc1cc2c3nnc(-c4ccc(F)cc4)c-3cn(Cc3ccc(N(C)C)cc3)c2cc1OC | > 80 µM (inactive) |
| COc1cccc(OC)c1-c1cc(C(=O)N[C@@H](CC(C)C)C(=O)OC(C)(C)C)nn1-c1ccnc2cc(Cl)ccc12 | 1.35 µM |
| COc1cc2nc(C3CCC3)nc(N3CCN(c4ccccc4F)CC3)c2cc1OC | 17.7 µM |
| COc1cccc(OC)c1-c1cc(C(=O)NC2(C(=O)O)C3CC4CC(C3)CC2C4)nn1-c1ccc(C(=O)N(C)CCCN(C)C)cc1C(C)C (centres undefined) | > 80 µM (inactive) |
| CCOc1cc2c(N3CCN(c4ccccc4OC)CC3)nc(-c3ccc(OC)c(OC)c3)nc2cc1OC | > 80 µM (inactive) |
| COc1cc2c3nnc(-c4ccc(Cl)cc4)c-3cn(Cc3ccccc3)c2cc1OC | 4.15 µM |
| COc1cc2nc(C3CCC3)nc(N3CCN(c4ccccc4)CC3)c2cc1OC | 12.1 µM |
| COc1cccc(OC)c1-c1cc(C(=O)N[C@@H](CC(C)C)C(=O)O)nn1-c1ccnc2cc(Cl)ccc12 | 0.232 µM |
| COc1cc2nc(C3CCC3)nc(N3CCN(c4ccccc4C)CC3)c2cc1OC | 14.9 µM |
| COc1cc2c3nnc(-c4ccc(F)cc4)c-3cn(Cc3ccccc3N(C)C)c2cc1OC | 4.36 µM and 4.14 µM |

| SMILES | EC50 |
| --- | --- |
| COc1ccc2c(c1)c1nnc(-c3ccc(F)cc3)c-1cn2Cc1ccccc1 | 9.24 µM |
| COc1cccc(OC)c1-c1nc(C(=O)N[C@@H](CC(C)C)C(=O)O)cn1-c1ccnc2ccccc12 | 3.76 µM |
| Cc1ccc(-c2nnc3c4cc5c(cc4n(Cc4ccc(F)cc4)cc2-3)OCO5)cc1 | 9.43 µM |
| COc1cc2nc(-c3ccccc3)nc(N3CCN(c4ccccc4)CC3)c2cc1OC | > 80 µM (inactive) |
| COc1cc2c3nnc(-c4ccc(F)cc4)c-3cn(Cc3cccc(N(C)C)c3)c2cc1OC | > 80 µM (inactive) |
| COc1cc2nc(CC3CC3)nc(N3CCN(c4ccccc4OC)CC3)c2cc1OC | 14.2 µM |
| COc1cc2c3nnc(-c4ccc(F)cc4)c-3cn(Cc3ccc(C)cc3)c2cc1OC | 6.9 µM and 6.79 µM |
| Clc1ccc(-c2nnc3c4cc5c(cc4n(Cc4ccccc4)cc2-3)OCO5)cc1 | > 80 µM (inactive) |
| COc1ccc2c(c1)c1nnc(-c3ccc(F)cc3)c-1cn2Cc1ccc(C)cc1 | > 80 µM (inactive) |
| COc1ccc(-c2nc(C(=O)N[C@@H](CC(C)C)C(=O)O)cn2-c2ccnc3cc(Cl)ccc23)c(OC)c1 | > 80 µM (inactive) |
| COc1cc2c3nnc(-c4ccc(F)cc4)c-3cn(Cc3ccc(F)cc3)c2cc1OC | 11.1 µM |
| CCc1nc(N2CCN(c3ccccc3OC)CC2)c2cc(OC)c(OC)cc2n1 | inactive |
| COc1cc2c3nnc(-c4ccc(F)cc4)c-3cn(CCc3ccccc3)c2cc1OC | inactive |
| COc1cccc(OC)c1-c1cc(C(=O)O)nn1-c1ccnc2cc(Cl)ccc12 | > 80 µM (inactive) |
| COc1ccc2nc(C3CCC3)nc(N3CCN(c4ccccc4OC)CC3)c2c1 | 10 µM |
| COc1ccc(-c2nnc3c4ccccc4n(Cc4ccncc4)cc2-3)cc1 | > 80 µM (inactive) |
| CCCc1nc(N2CCN(c3ccccc3OC)CC2)c2cc(OC)c(OC)cc2n1 | 16.6 µM |
| CCn1cc2c(-c3ccc(OC)cc3)nnc-2c2ccccc21 | > 80 µM (inactive) |
| COc1ccc(-c2nnc3c4cc(OC)c(OC)cc4n(Cc4ccc(F)cc4)cc2-3)cc1 | > 80 µM (inactive) |
| Cc1ccc(Cn2cc3c(-c4ccc(C)cc4)nnc-3c3cc4c(cc32)OCO4)cc1 | inactive |
| COc1ccc(-c2nnc3c4ccccc4n(Cc4ccc(C)cc4)cc2-3)cc1 | > 80 µM (inactive) |
| COc1ccc2c(N3CCN(c4ccccc4OC)CC3)nc(C3CCC3)nc2c1 | inactive |
| COc1ccc(Cn2cc3c(-c4ccc(F)cc4)nnc-3c3cc(OC)c(OC)cc32)cc1 | 8.11 µM |
| COc1ccc(-c2nnc3c4ccccc4n(CC4CC4)cc2-3)cc1 | inactive |

| SMILES | EC50 |
| --- | --- |
| COc1cc2nc(C3CC3)nc(N3CCN(Cc4ccc(C)cc4)CC3)c2cc1OC | inactive |
| COc1cc2nc(C3CC3)nc(N3CCN(c4ccccc4OC)CC3)c2cc1OC | 2.18 µM and 1.89 µM |
| COc1cc2nc(C(C)C)nc(N3CCN(c4ccccc4OC)CC3)c2cc1OC | 7.65 µM |
| COc1cc2ncnc(N3CCN(c4ccccc4OC)CC3)c2cc1OC | > 80 µM (inactive) |
| COc1ccc(N2CCN(c3nc(C4CCC4)nc4cc(OC)c(OC)cc34)CC2)c(OC)c1 | inactive |
| COc1ccccc1-c1nc(C(=O)N[C@@H](CC(C)C)C(=O)O)cn1-c1ccnc2cc(Cl)ccc12 | inactive |
| COc1ccccc1N1CCN(c2nc(C3CCC3)nc3ccccc23)CC1 | inactive |
| COc1cc2nc(C3CCCC3)nc(N3CCN(c4ccccc4OC)CC3)c2cc1OC | 5.79 µM |
| CC(C)C[C@H](NC(=O)c1cn(-c2ccnc3ccccc23)c(-c2ccccc2)n1)C(=O)O | > 80 µM (inactive) |
| COc1cc2c3nnc(-c4ccc(F)cc4)c-3cn(Cc3ccccc3)c2cc1OC | 7.24 µM and 7.42 µM |
| COc1ccccc1-c1cc(C(=O)N[C@@H](CC(C)C)C(=O)OC(C)(C)C)nn1-c1ccnc2cc(Cl)ccc12 | 5.01 µM |
| COc1cc2c3nnc(-c4ccc(F)cc4)c-3cn(Cc3ccc(OC(F)(F)F)cc3)c2cc1OC | 12.3 µM |
| CCc1ccc(-c2nnc3c4cc(OC)c(OC)cc4n(Cc4ccccc4)cc2-3)cc1 | inactive |
| COc1cc2c3nnc(-c4ccc(C)cc4)c-3cn(Cc3ccccc3)c2cc1OC | inactive |
| COc1ccc2c3nnc(-c4ccc(C)cc4)c-3cn(Cc3ccc(C)cc3)c2c1 | 11.2 µM |
| CCOc1ccccc1N1CCN(c2nc(C3CC3)nc3cc(OC)c(OC)cc23)CC1 | 6.08 µM |
| COc1cc2c3nnc(-c4ccc(C)c(C)c4)c-3cn(Cc3ccccc3)c2cc1OC | 6.2 µM |
| COc1ccc(-c2nnc3c4ccccc4n(Cc4ccc(F)cc4)cc2-3)cc1 | inactive |
| COc1cc2c3nnc(-c4ccc(Cl)cc4)c-3cn(Cc3ccc(C)cc3)c2cc1OC | 18.1 µM |
| COc1cc2c3nnc(-c4ccc(F)cc4)c-3cn(Cc3cccnc3)c2cc1OC | > 80 µM (inactive) |
| COc1cc2nc(C3CC3)nc(N3CCN(C(=O)c4ccccc4)CC3)c2cc1OC | inactive |
| Fc1ccc(Cn2cc3c(-c4ccc(F)cc4)nnc-3c3cc4c(cc32)OCO4)cc1 | 7.29 µM |
| C=Cc1nc(N2CCN(c3ccccc3OC)CC2)c2cc(OC)c(OC)cc2n1 | 7.03 µM |
| CCOc1ccc(-c2nnc3c4cc(OC)c(OC)cc4n(Cc4ccccc4)cc2-3)cc1 | 8.92 µM |

| SMILES | EC50 |
| --- | --- |
| CCOc1cc2nc(-c3ccc(OC)c(OC)c3)nc(N3CCN(c4ccccc4)CC3)c2cc1OC | > 80 µM (inactive) |
| CCn1cc2c(-c3ccc(F)cc3)nnc-2c2cc(OC)c(OC)cc21 | > 80 µM (inactive) |
| COc1cc2nc(-c3ccccc3)nc(N3CCN(c4ccc(F)cc4)CC3)c2cc1OC | > 80 µM (inactive) |
| COc1ccc2c3nnc(-c4ccc(C)cc4)c-3cn(Cc3ccccc3)c2c1 | 15.8 µM |
| CCOc1ccc(-c2nnc3c4cc(OC)c(OC)cc4n(Cc4ccc(C)cc4)cc2-3)cc1 | 13 µM |
| COc1cc2c3nnc(-c4ccccc4)c-3cn(Cc3ccccc3)c2cc1OC | 19.9 µM |
| COc1ccccc1-c1nc(C(=O)N[C@@H](CC(C)C)C(=O)O)cn1-c1ccnc2ccccc12 | > 80 µM (inactive) |
| COc1ccc2c(c1)c1nnc(-c3ccc(F)cc3)c-1cn2Cc1ccc(F)cc1 | 13.9 µM |
| COc1ccccc1CN1CCN(c2nc(C3CC3)nc3cc(OC)c(OC)cc23)CC1 | inactive |
| Cc1cccc(C)c1-c1nc(C(=O)N[C@@H](CC(C)C)C(=O)O)cn1-c1ccnc2cc(Cl)ccc12 | 9.23 µM |
| Cc1ccc(-c2nnc3c4cc5c(cc4n(Cc4ccccc4)cc2-3)OCO5)cc1C | 1.44 µM |
| Fc1ccc(-c2nnc3c4cc5c(cc4n(Cc4ccccc4)cc2-3)OCO5)cc1 | 10.9 µM |
| COc1cc2nc(C3CCC3)nc(N3CCN(c4ccccc4Cl)CC3)c2cc1OC | 12.2 µM |
| COc1cc2c3nnc(-c4ccccc4)c-3cn(Cc3ccc(F)cc3)c2cc1OC | 16.6 µM |
| Cc1ccc(Cn2cc3c(-c4ccc(C)c(C)c4)nnc-3c3cc4c(cc32)OCO4)cc1 | 16.4 µM |
| COc1cccc(OC)c1-c1nc(C(=O)N[C@@H](CC(C)C)C(=O)O)cn1-c1cccc2ccccc12 | 2.31 µM and 4.47 µM |
| COc1cc2nc(C3CCC3)nc(N3CCN(c4ccccn4)CC3)c2cc1OC | inactive |
| COc1cccc(OC)c1-c1nc(C(=O)N[C@@H](CC(C)C)C(=O)O)cn1-c1ccc(C)cc1 | > 80 µM (inactive) |
| COc1cc2c3nnc(-c4ccc(F)cc4)c-3cn(Cc3ccc(Cl)cc3)c2cc1OC | 7.54 µM |
| COc1cc2c3nnc(-c4ccc(C)cc4)c-3cn(Cc3ccc(F)cc3)c2cc1OC | 6.4 µM |
| COc1cc2nc(CCN(C)C)nc(N3CCN(c4ccccc4OC)CC3)c2cc1OC | > 80 µM (inactive) |
| COc1ccc(-c2nnc3c4ccccc4n(Cc4ccc(OC(F)(F)F)cc4)cc2-3)cc1 | inactive |
